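Dose response: 5 concentrations. Exposure: 48 h. Format: 96-well plates. Endpoint: linear interpolation; highest concentration if not reached. GI50 = concentration required for 50% inhibition of growth. TGI: total growth inhibition.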 Calls of active or inactive are those of the source. Cut-off read from the data, not from the text of the source: active = GI50 below about 0.43 µM; inactive = the rest.
Key:
Test in all cases: NCI anticancer screen, dose series, 48 h
UACC-62 melanoma = test system: UACC-62 melanoma
SF-268 CNS = test system: SF-268 CNS
HCT-15 colon = test system: HCT-15 colon
EKVX NSCLC = test system: EKVX NSCLC
SN12C renal = test system: SN12C renal
SK-MEL-2 melanoma = test system: SK-MEL-2 melanoma
SF-295 CNS = test system: SF-295 CNS
HOP-92 NSCLC = test system: HOP-92 NSCLC

Structure (SMILES)	TGI (UACC-62 melanoma) [µM]	TGI (SF-268 CNS) [µM]	TGI (HCT-15 colon) [µM]	TGI (EKVX NSCLC) [µM]	TGI (SN12C renal) [µM]	TGI (SK-MEL-2 melanoma) [µM]	TGI (SF-295 CNS) [µM]	TGI (HOP-92 NSCLC) [µM]	GI50 (UACC-62 melanoma) [µM]	GI50 (HCT-15 colon) [µM]	GI50 (EKVX NSCLC) [µM]	GI50 (SK-MEL-2 melanoma) [µM]	outcome (UACC-62 melanoma)	outcome (SF-268 CNS)	outcome (HCT-15 colon)	outcome (EKVX NSCLC)	outcome (SN12C renal)	outcome (SF-295 CNS)	outcome (HOP-92 NSCLC)
Cc1ccc(C#CS(=O)(=O)C(F)(F)F)cc1	> 100	> 100	> 100	> 100	> 100	> 100	> 31.6	> 100	–	–	–	–	–	–	–	–	–	–	–
COc1cc(-c2nc3cc(Cl)c(Cl)cc3[nH]2)ccc1OCC(=O)N=Nc1c(O)[nH]c2ccc(Cl)cc12	2.54	–	> 100	> 100	–	2.93	–	–	1.2	> 100	1.7	1.28	–	–	–	–	–	–	–
N#Cc1ccc(C2Oc3ccc(Cl)cc3C=C2[N+](=O)[O-])cc1 (stereo not drawn)	3.09	4.16	4.12	3.42	–	4.09	9.15	2.83	–	–	–	–	–	–	–	–	–	–	–
O=Cc1c(Br)[nH]c2ccccc12	> 100	> 100	> 100	> 100	> 100	> 100	> 100	> 100	–	–	–	–	–	–	–	–	–	–	–
Cc1cc2oc3c(ccc(=O)n3C)c(=O)c2c(C)c1Cl	> 100	> 100	> 100	> 100	> 100	> 100	> 100	> 100	–	–	–	–	–	–	–	–	–	–	–
O=NN1C(c2ccccc2)CCCC1c1ccccc1 (stereo not drawn)	> 100	> 100	> 100	99.1	> 100	> 100	> 100	> 96.1	–	–	–	–	–	–	–	–	–	–	–
CCCCOc1ccc2c(c1)CC[C@@H]1[C@@H]2CC[C@]2(C)C(=O)N(CCCC)C(=O)C[C@@H]12	> 100	–	> 100	–	> 100	> 100	> 100	> 100	–	–	–	–	–	–	–	–	–	–	–
CCOC(=O)C1=C(c2ccccc2)C12N(Cc1ccccc1)C(=O)C2(c1ccccc1)c1ccccc1 (stereo not drawn)	> 100	> 100	> 100	> 100	> 100	80	> 100	87.5	–	–	–	–	–	–	–	–	–	–	–
O=C1c2cc3c(cc2CC1Cc1ccc2c(c1)CCC2)CCC3 (stereo not drawn)	> 100	> 100	> 100	> 100	> 100	> 100	> 100	–	–	–	–	–	–	–	–	–	–	–	–
O=C(c1ccccc1O)c1cc(-c2ncc3c(=O)c4ccccc4oc3n2)c(-c2ccccc2O)[nH]c1=O	51.4	> 75.9	71	> 92	63.7	46.3	22.7	52	–	–	–	–	–	–	–	–	–	–	–
O=P(O)(O)CN1CCNCCN(CP(=O)(O)O)CCN(CP(=O)(O)O)CCNCC1	–	–	–	–	–	–	–	–	–	–	–	–	inactive	inactive	inactive	inactive	inactive	inactive	inactive
